# Test results taken from patent EP0920441B1, “7ALPHA-(EPSILON-AMINOALKYL)-ESTRATRIENES, PROCESS FOR PREPARING THE SAME, PHARMACEUTICAL PREPARATIONS CONTAINING SAID 7ALPHA-(EPSILON-AMINOALKYL)-ESTRATRIENES AND THEIR USE FOR PREPARING MEDICAMENT” (SCHERING AKTIENGESELLSCHAFT, priority 1996, dated 1998).
# Experiments:
# humanem Estrogenrezeptor = target: T1, humanem Estrogenrezeptor (Homo sapiens, UniProt P03372); assay: Transactivation assay for antiestrogenic activity in HeLa cells (HEGO + Vit-TK-CAT reporter); assay type: cell-based; conditions: Hela cells transiently transfected with HEGO and Vit-TK-CAT; in presence of 0,1 nM Estradiol; read-out: IC50 [nM] Hela-Zellen
# T1 construct: expressed in transfected cells; host or cells: HeLa cells, transiently transfected with HEGO
# T1 sequence (P03372 1-595): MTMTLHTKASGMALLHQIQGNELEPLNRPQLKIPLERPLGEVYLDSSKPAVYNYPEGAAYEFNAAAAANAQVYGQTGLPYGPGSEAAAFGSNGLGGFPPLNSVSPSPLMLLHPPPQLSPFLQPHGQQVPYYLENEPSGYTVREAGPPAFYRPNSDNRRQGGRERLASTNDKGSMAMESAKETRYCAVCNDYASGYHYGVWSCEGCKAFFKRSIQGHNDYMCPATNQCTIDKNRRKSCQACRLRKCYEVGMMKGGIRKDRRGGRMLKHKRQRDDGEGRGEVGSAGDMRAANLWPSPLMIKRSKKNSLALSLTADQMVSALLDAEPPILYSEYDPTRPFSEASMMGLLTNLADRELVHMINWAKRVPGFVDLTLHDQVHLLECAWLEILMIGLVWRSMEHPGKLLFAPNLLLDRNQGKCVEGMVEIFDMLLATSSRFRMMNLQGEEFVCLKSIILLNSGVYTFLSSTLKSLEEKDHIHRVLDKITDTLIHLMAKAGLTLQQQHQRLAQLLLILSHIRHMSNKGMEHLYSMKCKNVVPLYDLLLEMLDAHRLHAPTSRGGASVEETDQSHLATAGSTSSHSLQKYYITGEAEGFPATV
# Text: Die antiestrogene Wirkung der erfindungsgemäßen Verbindungen wurde in Transaktivierungsassays bestimmt [Demirpence E., Duchesne M.-J., Badia E., Gagne D. und Pons M.: MVLN Cells: A Bioluminescent MCF-7-Derived Cell Line to study the Modulation of Estrogenic Activity; J. Steroid. Molec.
# Die Hela-Zellen sind transient mit humanem Estrogenrezeptor-Expressionsvektor (HEGO) und Vit-TK-CAT Reportergen und die MVLN-Zellen stabil mit dem Reportergen Vit-TK-LUC transfiziert. Es wurde die […] Wirkstärke in Gegenwart von 0,1 nM Estradiol bestimmt.
# Uterus = Uterus growth test in the infantile rat, p.o. (antiestrogenic / antiuterotrophic activity); assay type: in vivo, Ratte; conditions: 0,1 mg/kg p.o. once daily for 3 days with 0,5 µg Estradiolbenzoat s.c., inhibition of uterus weight versus EB control
# Text: 1. Uteruswachstumstest bei der infantilen Ratte (antiestrogene Wirkung)
# Bei Nagern reagiert der Uterus auf die Applikation von estrogenen mit einer Gewichtszunahme (sowohl Proliferation als auch Wassereinlagerung). Dieses Wachstum ist durch gleichzeitige Gäbe antiestrogen-wirkender Verbindungen dosisabhängig zu hemmen. * = Dimethylbenzanthrazen
# Infantile weibliche Ratten im Gewicht von 35-45 g bei Versuchsbeginn, pro Dosis 5-6 Tiere.
# Für die p.o. Applikation werden die Substanzen in 1 Teil Ethanol (E) gelöst und mit 9 Teilen Erdnußöl (EÖ) aufgefüllt.
# Die gerade von den Müttern abgesetzten jungen Ratten werden zur Eingewöhnung einen Tag vor Behandlungsbeginn geliefert und sofort mit Futter - auch in dem Tierkäfig - versorgt. Die Behandlung erfolgt dann täglich einmal über 3 Tage in Kombination mit 0,5 µg Estradiolbenzoat (EB). EB wird immer subcutan (s.c.) appliziert, während die Testsubstanz p.o. (peroral) verabreicht wird. 24 Stunden nach der letzten Applikation werden die Tiere gewogen, getötet und die Uteri entnommen. Von den präparierten Uteri werden die Feuchtgewichte (ohne Inhalt) ermittelt.
# • negative Kontrolle: Vehikel (E/EÖ), 0,2 ml/Tier/Tag • positive Kontrolle: 0,5 µg EB/0,1 ml/Tier/Tag
# Von den relativen Organgewichten (mg/100 g Körpergewicht) werden für jede Gruppe die Mittelwerte mit Standardabweichung (X+SD), sowie die Signifikanz der Unterschiede zur Kontrollgruppe (EB) im Dunnett-Test (p<0.05) ermittelt. Die Berechnung der Hemmung (in %) gegenüber der EB-Kontrolle erfolgt mit einem Programm. Die relativen Wirksamkeiten der Prüfsubstanzen werden durch eine Kovarianz- und Regressionsanalyse ermittelt.
# [1] = tested on: DMBA-induzierten Mammatumors; assay: DMBA tumour model in the rat (influence on tumour growth); assay type: in vivo, Ratte
# Text: Beeinflussung des Tumorwachstums im DMBA*-Modell bei der Ratte (DMBA-Tumormodell)
# Das Wachstum des DMBA-induzierten Mammatumors der Ratte ist weitgehend von Estrogenen und Prolaktin abhängig. Wirksame Antiestrogene, Antigestagene und Aromatasehemmer führen zur Hemmung des Tumorwachsturns. Substanzen, die antigonadotrope und androgene Eigenschaften besitzen, entfalten ebenfalls tumorhemmende Wirkung.
# 45 - 47 Tage alte weibliche Ratten (Sprague-Dawley, Züchter ZIH oder Möllegard), pro Gruppe 8 - 10 Tiere. *9,10-Dimethyl-1,2-benzanthracen
# Die Tiere erhalten einmalig 10 mg DMBA oral. Anschließend werden die Tiere einmal wöchentlich palpatorisch auf Tumorentwicklung untersucht. 6 bis 10 Wochen nach der DMBA-Behandlung entwickeln sich etwa 1 bis 10 Tumoren pro Tier. Die Tumorgröße wird einmal wöchentlich mit Hilfe einer Schiebelehre bestimmt. Hat mindestens ein Tumor eine definierte Größe (150 mm^2 Tumorfläche) erreicht, erfolgt die Ovariektomie der Tiere bzw. beginnt die Behandlung der Tiere mit der Testsubstanz. Die Behandlung erfolgt zumeist täglich über ca. 28 Tage (Details Abwicklung siehe Versuchsplan). Die Tumorgröße wird weiterhin 1 x /Woche ermittelt.
# Die Gesamttumorgröße pro Tier wird vor Beginn der Behandlung ermittelt (Vorwerte). Für jede Gruppe wird dann der Mittelwert der prozentualen Veränderungen der Tumorgröße, bezogen auf die initialen Werte, errechnet. […]
# [2] = Antiestrogenic activity (test not specified)
Compound,IC50 (humanem Estrogenrezeptor) [nM],"0,1 mg/kg p.o. % Hemmung (Uterus) [%]",Hemmung des Tumorwachstums ([1]; oral dose 10 mg/kg/Tag (Figur 1)),Hemmung des Tumorwachstums ([1]; oral dose 3 mg/kg/Tag (Figur 1)),antiestrogene Wirksamkeit [2]
"CN(CCCCC[C@@H]1Cc2cc(O)ccc2[C@H]2CC[C@@]3(C)C(=CC[C@@H]3O)[C@H]12)CCCS(=O)(=O)CCCC(F)(F)C(F)(F)F [Beispiel 25, 7α-{5-[N-Methyl-N-3-(4,4,5,5,5-pentafluorpentansulfonyl)-propylamino]-pentyl}-estra-1,3,5(10),14-tetraen-3,17β-diol]",0.06,–,–,–,–
"C[C@]12CC[C@@H]3c4ccc(O)cc4C[C@@H](CCCCCCCCC[S+]([O-])CCCC(F)(F)C(F)(F)F)[C@H]3[C@@H]1CC[C@@H]2O (stereo partly drawn) [ZM 182 780, 7α-[9-(4,4,5,5,5-Pentafluorpentansulfinyl)-nonyl]-estra-1,3,5(10)-trien-3,17β-diol, reference compound]",–,8,nur eine geringfügige Wirkung im Vergleich zur intakten Kontrolle,–,–
"C[C@]12C[C@H](F)[C@@H]3c4ccc(O)cc4C[C@@H](CCCCCN4CCC[C@H]4CSCCCC(F)(F)C(F)(F)F)[C@H]3[C@@H]1CC[C@@H]2O [Beispiel 29, 11β-Fluor-7α-{5-[2-(4,4,5,5,5-pentafluorpentylthiomethyl)-pyrrolidin-1-yl]-pentyl}-estra-1,3,5(10)-trien-3,17β-diol]",0.13,80,–,"stärker als eine orale Dosis von 10 mg/kg/Tag 7α-[9-(4,4,5,5,5-Pentafluorpentansulfinyl)-nonyl]-estra-1,3,5(10)-trien-3,17β-diol",–
"CN(CCCCC[C@@H]1Cc2cc(O)ccc2[C@H]2CC[C@@]3(C)[C@@H](C[C@@H](F)[C@]3(C)O)[C@H]12)CCCS(=O)(=O)CCCC(F)(F)C(F)(F)F [Beispiel 18, 16α-Fluor-17α-methyl-7α-{5-[N-methyl-N-3-(4,4,5,5,5-pentafluorpentansulfonyl)-propylamino]-pentyl}-estra-1,3,5(10)-trien-3,17β-diol]",0.05,16,–,–,–
"CN(CCCCC[C@@H]1Cc2cc(O)ccc2[C@@H]2[C@@H]1[C@@H]1CCC(=O)[C@@]1(C)C[C@@H]2F)CCCSCCCC(F)(F)C(F)(F)F [Beispiel 40, 11β-Fluor-7α-{5-[N-methyl-N-3-{4,4,5,5,5-pentafluorpentylthio)-propylamino]-pentyl}-3-hydroxy-estra-1,3,5(10)-trien-17-on]",–,–,–,–,stark antiestrogen wirksam
"C[C@]1(O)CC[C@H]2[C@@H]3[C@H](CCCCCN4CCC[C@H]4CSCCCC(F)(F)C(F)(F)F)Cc4cc(O)ccc4[C@H]3[C@@H](F)C[C@@]21C [Beispiel 31, 11β-Fluor-17α-methyl-7α-{5-[(2S)-2-(4,4,5,5,5-pentafluorpentylthiomethyl)-pyrrolidin-1-yl]-pentyl}-estra-1,3,5(10)-trien-3,17β-diol]",0.1,71,–,–,–
"CN(CCCCC[C@@H]1Cc2cc(O)ccc2[C@H]2CC[C@@]3(C)[C@@H](C[C@@H](F)[C@]3(C)O)[C@H]12)CCCSCCCC(F)(F)C(F)(F)F [Beispiel 15, 16α-Fluor-17α-methyl-7α-{5-[N-methyl-N-3-(4,4,5,5,5-pentafluorpentylthio)-propylamino]-pentyl}-estra-1,3,5(10)-trien-3,17β-diol]",0.06,33,–,–,–
"CN(CCCCC[C@@H]1Cc2cc(O)ccc2[C@@H]2[C@@H]1[C@@H]1CC[C@H](O)[C@@]1(C)C[C@@H]2F)CCCSCCCC(F)(F)C(F)(F)F [Beispiel 12, 11β-Fluor-7α-{5-(N-methyl-N-3-(4,4,5,5,5-pentafluorpentylthio)-propytamino]-pentyl}-estra-1,3,5(10)-trien-3,17β-diol]",0.06,91,–,–,–
"CN(CCCCC[C@@H]1Cc2cc(O)ccc2[C@@H]2[C@@H]1[C@@H]1CC[C@](C)(O)[C@@]1(C)C[C@@H]2F)CCCSCCCC(F)(F)C(F)(F)F [Beispiel 36, 11β-Fluor-17α-methyl-7α-{5-[N-methyl-N-3-(4,4,5,5,5-pentafluorpentylthio)-propylamino]-pentyl}-estra-1,3,5(10)-trien-3,17β-diol]",0.05,62,–,–,–
